Experimental findings from US11426441B2, “Composition comprising protein phosphatase 1 inhibitory peptide for treating vascular diseases” (BethphaGen Inc., priority 2016, dated 2022) are described below.

This assay relates to eNOS and Akt. Put plainly: eNOS and Akt phosphorylation in PAECs (western blotting). In kind it is cell-based. As for the experimental part: FIGS. 16a, 16b and 16c. (16a-16b) PAECs were treated with 3 μM ψPLB-SE for 1 hour, and protein expression was quantitatively analyzed through western blotting using antibodies against Phospho-eNOS (ser1177), total eNOS, phospho-Akt (Ser473, Thr308), total Akt, and GAPDH. (16c) The pulmonary tissue lysate was subjected to immunoprecipitation using PP1 antibody to investigate the interactions of PP1 with eNOS and Akt depending on the presence or absence of the treatment with ψPLB-SE using respective antibodies therefor.
FIGS. 17a, 17b and 17c. (17a) PAECs were treated with 50 μM LY294002, a PI3K inhibitor, for 24 hours, and then treated with 3 μM ψPLB-SE for 1 hour. Protein expression was quantitatively analyzed through western blotting using antibodies against Phospho-eNOS (ser1177), total eNOS, phospho-Akt (Ser473, Thr308), total Akt, and GAPDH. (17b) PAECs were treated with 10 μM inhibitor IV, an Akt inhibitor, for 2 hours, and then treated with 3 μM ψPLB-SE for 1 hour. Protein expression was quantitatively analyzed through western blotting using antibodies against total eNOS and GAPDH. (17c) PAECs were treated with 100 nM OA, a PP1 inhibitor, for 24 hours, and then treated with 3 μM ψPLB-SE for 1 hour. Protein expression was quantitatively analyzed through western blotting using antibodies against Phospho-eNOS (ser1177), total eNOS, phospho-Akt (Ser473, Thr308), total Akt, and GAPDH.
ψPLB-SE (RAE16TIEMPQ; SEQ ID NO: 2) was derived from the PLB protein sequence surrounding the Ser16 phosphorylation site. To facilitate uptake into cells, the peptide was conjugated to the cell penetrating peptide dNP2 ([…]; SEQ ID NO: 21) or TAT (YGRKKRRQRRR; SEQ ID NO: 22). The peptides used in the present invention were PLB-SE (RAETIEMPQ; SEQ ID NO: 2) and control peptide (RASTIEMPQ; SEQ ID NO: 23). PLB-SE and cell penetrating peptide were connected by a linker peptide (GGG; SEQ ID NO: 24) The peptides (purity of 95% or higher, AnyGen, Gwangju, Korea) was resuspended in double-distilled water or physiological saline at a stock concentration of 3 mM (cells), 2.5 mg/ml (rats), or 500 μg/ml (mice). The rats were treated with 1 mg/kg peptides and mice were treated with 2 mg/kg peptides. The rat aortic smooth muscle cells (RASMCs), human coronary smooth muscle cells (HCSMCs), pulmonary arterial endothelial cells (PAECs), and pulmonary arterial smooth muscle cells (PASMCs) were treated with the peptides at a final concentration of 3 μM for 1 hour. The PI3K inhibitor LY294002 (Millipore, USA), the Akt inhibitor Inhibitor IV (Calbiochem, USA), and the PP1 inhibitor okadaic acid (Sigma Aldrich, USA), used in the experiments using pulmonary arterial endothelial cells (PAECs), were purchased. For the monocrotaline aqueous solution, the monocrotaline powder (Sigma Aldrich, USA) was dissolved in a small amount of a 1 M hydrochloric acid solution (HCL), diluted with sterilized distilled water, and adjusted to pH 7.35 by addition of sodium hydroxide (NaOH). The animals were bred and observed in the same conditions as in the control group during the experiment periods. In addition, the calcium ionophore A23187 and the calpain I and II inhibitors MDL28170 and […] were purchased from Sigma-Aldrich (St. Louis, Mo., USA).
Vascular smooth muscle cells (VSMCs) were homogenized in a minimal volume of 50 mM Tris-HCl, pH 7.4, supplemented with a broad-spectrum protease inhibitor cocktail (Calbiochem). The proteins were separated by SDS-PAGE and then transferred to polyvinylidene fluoride membranes (Schleicher & Schuell). After blocking with 5% (w/v) non-fat milk for 1 hour and washing with TBST, the membranes were incubated with antibodies against SERCA2a, SERCA2b (21st century biochemical), PCNA (abcam), GAPDH (Sigma-Aldrich), phospho-eNOS, eNOS, phospho-eIF2α, eIF2α (cell signaling), Vimentin, α-SMA, BMPR2 (Santa cruz), phospho-Akt, Akt (cell signaling), phospho-phospholamban (Merck), and Phospholamban (cell signaling). […]
(Immunoblotting shows a protein as a band on a membrane.)

No end group written: not given here.

As for “RAETIEMPQ (not fully specified) [ψPLB-SE, 9-mer PP1 decoy peptide mimicking phosphorylated PLB; conjugated via GGG linker to cell penetrating peptide dNP2 or TAT]”, the “phosphorylation of Akt and eNOS” value (100 nM okadaic acid followed by ψPLB-SE) was “further increased”. Besides, for the setting “3 μM for 1 hour”, the “phosphorylation of Akt serine 473 and threonine 308” value is reported as “increased”; the “phosphorylation of eNOS serine 1177” value is listed as “increased”; the “phosphorylation of eNOS threonine 495” value is “reduced”. In addition, under “Inhibitor IV 10 μM then ψPLB-SE”, the eNOS phosphorylation result was “did not increase”. For the same sequence, the “phosphorylation of eNOS and Akt” value (LY294002 50 μM followed by ψPLB-SE) is on record as “increased”.
